# Test results from ChEMBL document CHEMBL5576152, “Antitubercular evaluation of dihydropyridine-triazole conjugates: design, synthesis, in vitro screening, SAR and in silico ADME predictions” (RSC Med Chem, 2024).
# Experiments:
# [1] = Cytotoxicity against human THP-1 cells assessed as reduction in cell viability incubated for 48 hrs by resazurin assay; assay type: toxicity, cell-based
# [2] = system: Mycobacterium tuberculosis; assay: Antitubercular activity against Mycobacterium tuberculosis H37Ra assessed as reduction in microbial growth incubated for 5 days by resazurin microtiter assay; assay type: functional; details: 120 h, time 5 day
# [3] = Selectivity index, ratio of CC50 for cytotoxicity against human THP-1 cells to MIC90 for antitubercular activity against Mycobacterium tuberculosis H37Ra; assay type: toxicity, cell-based; details: read-out: Selectivity Index
# [4] = Stability of compound in simulated gastric fluid assessed as remaining compound at pH 1.2 measured upto 120 mins by UPLC analysis; assay type: ADME; details: read-out: Stability
# [5] = Apparent volume of distribution in Sprague-Dawley rat at 50 mg/kg, po measured for 5 to 1440 mins by LC-MS/MS analysis; assay type: ADME, organism-based; details: in vivo, time 5-1440 min
# [6] = Stability of compound in simulated physiological fluid assessed as remaining compound at pH 7.4 measured upto 120 mins by UPLC analysis; assay type: ADME; details: read-out: Stability
# [7] = Half life in Sprague-Dawley rat at 50 mg/kg, po measured for 5 to 1440 mins by LC-MS/MS analysis; assay type: ADME, organism-based; details: in vivo, time 5-1440 min
# [8] = Cmax in Sprague-Dawley rat at 50 mg/kg, po measured for 5 to 1440 mins by LC-MS/MS analysis; assay type: ADME, organism-based; details: in vivo, time 5-1440 min
# [9] = Stability of compound in simulated intestinal fluid assessed as remaining compound at pH 6.8 measured upto 120 mins by UPLC analysis; assay type: ADME; details: read-out: Stability
# [10] = MRT in Sprague-Dawley rat at 50 mg/kg, po measured for 5 to 1440 mins by LC-MS/MS analysis; assay type: ADME, organism-based; details: in vivo, time 5-1440 min
# [11] = Stability of compound in rat plasma assessed as remaining compound measured upto 120 mins by UPLC analysis; assay type: ADME, cell-free; details: read-out: Stability
# [12] = Tmax in Sprague-Dawley rat at 50 mg/kg, po measured for 5 to 1440 mins by LC-MS/MS analysis; assay type: ADME, organism-based; details: in vivo, time 5-1440 min
# [13] = system: Mycobacterium tuberculosis; assay: Antitubercular activity against Mycobacterium tuberculosis H37Rv assessed as reduction in microbial growth by BACTEC 460-radiometric assay; assay type: functional
# [14] = system: Mycobacterium tuberculosis; assay: Antitubercular activity against Mycobacterium tuberculosis H37Rv assessed as reduction in microbial growth by microplate alamar blue assay; assay type: functional
# [15] = system: Mycobacterium tuberculosis; assay: Antitubercular activity against Mycobacterium tuberculosis H37Ra assessed as reduction in microbial growth at 2 ug/ml incubated for 5 days by resazurin microtiter assay relative to control; assay type: functional; details: 120 h, time 5 day
# [16] = system: Mycobacterium tuberculosis; assay: Antitubercular activity against Mycobacterium tuberculosis H37Ra assessed as reduction in microbial growth at 6 ug/ml incubated for 5 days by resazurin microtiter assay relative to control; assay type: functional; details: 120 h, time 5 day
SMILES,MIC90 [2] [µg/mL],other results
CC1=C(C(=O)NCc2cn(-c3ccc(C)cc3)nn2)C(c2ccc(Cl)cc2)C2=C(CC(C)(C)CC2=O)N1 (stereo not given),6.44,CC50 at 48 h [1]: 44.3 µg/mL; selectivity ratio [3]: 6.88
CC1=C(C(=O)NCc2cn(Cc3ccccc3)nn2)C(c2ccccc2)C2=C(CC(C)(C)CC2=O)N1 (stereo not given),> 25,–
COc1cc(C2C(C(=O)NCc3cn(-c4ccccc4)nn3)=C(C)NC3=C2C(=O)CC(C)(C)C3)cc(OC)c1OC (stereo not given),> 25,–
COc1ccc(-n2cc(CNC(=O)C3=C(C)NC4=C(C(=O)CC(C)(C)C4)C3c3cccc(Cl)c3)nn2)cc1 (stereo not given),> 25,–
CC1=C(C(=O)NCc2cn(-c3ccc(F)cc3)nn2)C(c2ccc(Cl)cc2)C2=C(CC(C)(C)CC2=O)N1 (stereo not given),25.9,–
COc1cc(C2C(C(=O)NCc3cn(-c4cccc(C(F)(F)F)c4)nn3)=C(C)NC3=C2C(=O)CC(C)(C)C3)cc(OC)c1OC (stereo not given),> 25,–
COc1ccc(C2C(C(=O)NCc3cn(-c4cccc(C(F)(F)F)c4)nn3)=C(C)NC3=C2C(=O)CC(C)(C)C3)cc1 (stereo not given),> 25,–
CC1=C(C(=O)NCc2cn(-c3ccccc3)nn2)C(c2ccccc2)C2=C(CC(C)(C)CC2=O)N1 (stereo not given),> 25,–
CC1=C(C(=O)NCc2cn(-c3ccc(C)cc3)nn2)C(c2ccccc2)C2=C(CC(C)(C)CC2=O)N1 (stereo not given),24.1,–
COc1cc(C2C(C(=O)NCc3cn(-c4ccc(F)cc4)nn3)=C(C)NC3=C2C(=O)CC(C)(C)C3)cc(OC)c1OC (stereo not given),> 25,–
CC1=C(C(=O)NCc2cn(-c3ccc(F)cc3)nn2)C(c2cccs2)C2=C(CC(C)(C)CC2=O)N1 (stereo not given),> 25,–
COc1ccc(-n2cc(CNC(=O)C3=C(C)NC4=C(C(=O)CC(C)(C)C4)C3c3cccs3)nn2)cc1 (stereo not given),> 25,–
CC1=C(C(=O)NCc2cn(-c3ccccc3)nn2)C(c2ccc(F)cc2)C2=C(CC(C)(C)CC2=O)N1 (stereo not given),12.1,–
CC1=C(C(=O)NCc2cn(-c3ccc(Cl)cc3)nn2)C(c2scnc2C)C2=C(CC(C)(C)CC2=O)N1 (stereo not given),> 25,–
CC1=C(C(=O)NCc2cn(-c3ccc(C)cc3)nn2)C(c2ccc(F)cc2)C2=C(CC(C)(C)CC2=O)N1 (stereo not given),6.24,remaining at 2 h [4]: ≥ 70%; Vd(app) [5]: 0.02778 L/kg; CC50 at 48 h [1]: > 99.8 µg/mL; remaining at 2 h [6]: ≥ 70%; half-life [7]: 4.16 h; Cmax [8]: 1400 ng/mL; remaining at 2 h [9]: ≥ 70%; MRT [10]: 6.69 h; selectivity ratio [3]: > 16; remaining at 2 h [11]: ≥ 70%; Tmax [12]: 1.33 h
CC1=C(C(=O)NCc2cn(-c3ccc(C)cc3)nn2)C(c2scnc2C)C2=C(CC(C)(C)CC2=O)N1 (stereo not given),> 25,–
COc1ccc(-n2cc(CNC(=O)C3=C(C)NC4=C(C(=O)CC(C)(C)C4)C3c3ccc(Cl)cc3)nn2)cc1 (stereo not given),6.64,CC50 at 48 h [1]: 64.6 µg/mL; selectivity ratio [3]: 9.73
COc1ccc(C2C(C(=O)NCc3cn(-c4ccccc4)nn3)=C(C)NC3=C2C(=O)CC(C)(C)C3)cc1 (stereo not given),> 25,–

SMILES,MIC90 [2] [µg/mL],other results
COC(=O)C1=C(C)NC(C)=C(C2=NN(C(C)=O)C(c3ccccc3)C2)C1c1cccc([N+](=O)[O-])c1 (stereo not given),–,MIC [13]: > 12.5 µg/mL
CC1=C(C(=O)NCc2cn(-c3ccccc3)nn2)C(c2ccc(Cl)cc2)C2=C(CC(C)(C)CC2=O)N1 (stereo not given),6.26,CC50 at 48 h [1]: 66.4 µg/mL; selectivity ratio [3]: 10.6
CC1=C(C(=O)NCc2cn(Cc3ccccc3)nn2)C(c2ccc(Cl)cc2)C2=C(CC(C)(C)CC2=O)N1 (stereo not given),> 25,–
CC1=C(C(=O)NCc2cn(-c3ccc(Cl)cc3)nn2)C(c2ccccc2)C2=C(CC(C)(C)CC2=O)N1 (stereo not given),25.1,–
CC1=C(C(=O)NCc2cn(-c3ccc(C)cc3)nn2)C(c2ccc(Cl)cc2)C2=C(CCCC2=O)N1 (stereo not given),> 25,–
COc1ccc(-n2cc(CNC(=O)C3=C(C)NC4=C(C(=O)CC(C)(C)C4)C3c3ccc(F)cc3)nn2)cc1 (stereo not given),6.44,CC50 at 48 h [1]: > 103 µg/mL; selectivity ratio [3]: > 16
CC1=C(C(=O)NCc2cn(-c3ccccc3C(F)(F)F)nn2)C(c2ccc(Cl)cc2)C2=C(CC(C)(C)CC2=O)N1 (stereo not given),> 25,–
COc1ccc(-n2cc(CNC(=O)C3=C(C)NC4=C(C(=O)CC(C)(C)C4)C3c3ccccn3)nn2)cc1 (stereo not given),> 25,–
CC1=C(C(=O)NCc2cn(Cc3ccccc3)nn2)C(c2scnc2C)C2=C(CC(C)(C)CC2=O)N1 (stereo not given),> 25,–
CC1=C(C(=O)NCc2cn(-c3ccccc3)nn2)C(c2scnc2C)C2=C(CC(C)(C)CC2=O)N1 (stereo not given),> 25,–
COc1cc(-n2cc(CNC(=O)C3=C(C)NC4=C(C(=O)CC(C)(C)C4)C3c3ccc(Cl)cc3)nn2)cc(OC)c1OC (stereo not given),> 25,–
COc1ccc(-n2cc(CNC(=O)C3=C(C)NC4=C(C(=O)CC(C)(C)C4)C3c3ccccc3Cl)nn2)cc1 (stereo not given),13.3,–
CC1=C(C(=O)NCc2cn(-c3ccc(C)cc3)nn2)C(c2ccc(F)cc2)C2=C(CCCC2=O)N1 (stereo not given),11.8,–
CC1=C(C(=O)NCc2cn(-c3ccccc3)nn2)C(c2cccs2)C2=C(CC(C)(C)CC2=O)N1 (stereo not given),> 25,–
CCCCc1nc(Cl)c(C2C(C(=O)Nc3ccc(F)cc3)=C(C)NC(C)=C2C(=O)Nc2ccc(F)cc2)n1Cc1ccccc1,–,MIC [14]: 0.02 µg/mL
CC1=C(C(=O)NCc2cn(-c3ccc(C(C)C)cc3)nn2)C(c2ccc(Cl)cc2)C2=C(CC(C)(C)CC2=O)N1 (stereo not given),27.2,–
CO[C@H]1/C=C/O[C@@]2(C)Oc3c(C)c(O)c4c(O)c(c(/C=N/N5CCN(C)CC5)c(O)c4c3C2=O)NC(=O)/C(C)=C\C=C\[C@H](C)[C@H](O)[C@@H](C)[C@@H](O)[C@@H](C)[C@H](OC(C)=O)[C@@H]1C [RIFAMPIN],–,inhibition at 2 µg/mL [15]: > 99%
CN[C@@H]1[C@H](O[C@H]2[C@H](O[C@H]3[C@H](O)[C@@H](O)[C@H](N=C(N)N)[C@@H](O)[C@@H]3N=C(N)N)O[C@@H](C)[C@]2(O)C=O)O[C@@H](CO)[C@H](O)[C@H]1O [STREPTOMYCIN],–,inhibition at 6 µg/mL [16]: > 99%
